Experiment [1] addresses Beta Secretase enzyme (BACE) (Homo sapiens (Human), UniProt P56817). In words: In vitro enzymatic BACE FRET assay. It counts as biochemical. The conditions noted are these: read-out: BACE 1 FRET assay IC50. The gist of the method: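 Reactions ran in 0.05 M acetate pH 4.2 with 10% DMSO final and 100 uM genapol. They were started with 50 nM peptide FRET substrate (fluorophore and quencher flanking the BACE cleavage site) and incubated one hour. Tris addition raised the pH to neutral to stop the reaction before fluorescence reading.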

Experiment [2] has as its system Aβ40 in conditioned medium of cells stably expressing Amyloid Precursor Protein (APP). Description: In vitro BACE cell-based assay (Aβ40 sandwich ELISA). Particulars: Homo sapiens. The gist of the method: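 Secreted Aβ40 was quantified by sandwich ELISA (pAb40 capture, biotinylated 6E10 detection, Europium time-resolved fluorescence). IC50 derived from percent inhibition versus concentration.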
In general terms: In an ELISA, binding on a coated surface is turned into a signal by an enzyme label.

The target of the next experiment is Cathepsin D (Cat D) (Homo sapiens (Human), UniProt P07339). In words: In vitro enzymatic Cathepsin D (Cat D) FRET assay. It counts as biochemical. Particulars: read-out: CatD IC50. The gist of the method:
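CHO-expressed recombinant Cat D cleaves a fluorophore/quencher FRET peptide (20 nM) in 0.05 M citrate pH 3.5, 5 mM CHAPS, 10% DMSO final, over 1 h. Tris addition neutralizes pH to stop the reaction; fluorescence read at excitation 500 nm, emission 580 nm.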

Setting [3] is: average IC50, BACE enzyme assay.
Where [4] appears, read: HEK293, average IC50, HEK cell assay, read-out: HEK cell assay IC50.
Setting [5] is: average IC50, cathepsin D enzyme assay.
The mark [6] stands for this setting: HEK293, HEK cells, average, read-out: HEK cell assay IC50.

The IC50 is the point on the concentration scale where inhibition reaches its midpoint.

Where two headings read alike, the source gives them in different places. A value given as a limit tells only on which side of the number the result lay.

Sequence of Cathepsin D (Cat D) (P07339 65-412, species assumed): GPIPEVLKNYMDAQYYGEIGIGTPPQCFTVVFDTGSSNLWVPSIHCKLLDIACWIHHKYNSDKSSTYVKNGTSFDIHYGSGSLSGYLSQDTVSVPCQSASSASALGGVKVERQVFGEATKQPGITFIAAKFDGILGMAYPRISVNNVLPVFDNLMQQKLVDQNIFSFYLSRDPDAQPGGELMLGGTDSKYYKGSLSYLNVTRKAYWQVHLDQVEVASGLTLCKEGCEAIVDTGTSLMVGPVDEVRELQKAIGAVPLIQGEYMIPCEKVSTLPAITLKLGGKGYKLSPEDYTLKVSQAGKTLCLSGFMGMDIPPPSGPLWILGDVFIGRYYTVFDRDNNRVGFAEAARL
Sequence of Beta Secretase enzyme (BACE) (P56817 46-501): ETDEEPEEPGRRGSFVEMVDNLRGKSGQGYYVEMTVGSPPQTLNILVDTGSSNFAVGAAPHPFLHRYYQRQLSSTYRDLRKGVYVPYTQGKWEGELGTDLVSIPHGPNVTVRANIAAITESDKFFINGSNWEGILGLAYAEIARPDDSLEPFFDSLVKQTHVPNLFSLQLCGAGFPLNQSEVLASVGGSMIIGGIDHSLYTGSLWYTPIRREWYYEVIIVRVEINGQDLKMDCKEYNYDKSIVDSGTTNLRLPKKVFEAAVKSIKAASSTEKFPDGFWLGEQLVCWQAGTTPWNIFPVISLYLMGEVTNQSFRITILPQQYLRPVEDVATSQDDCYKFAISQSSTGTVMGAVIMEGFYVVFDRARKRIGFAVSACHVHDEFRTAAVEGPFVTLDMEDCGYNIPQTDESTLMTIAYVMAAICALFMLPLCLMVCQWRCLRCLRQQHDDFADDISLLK

For the compound `COc1ccc(C(=O)Nc2cc(F)c(F)c([C@]3(CF)C[C@@H](C(F)(F)F)OC(N)=N3)c2)nc1` [Example 156, N-(3-((4S,6S)-2-amino-4-(fluoromethyl)-6-(trifluoromethyl)-5,6-dihydro-4H-1,3-oxazin-4-yl)-4,5-difluorophenyl)-5-methoxypicolinamide], the IC50 in experiment [1] (setting [3]) is 0.062 µM; in experiment [2] (setting [4]) it was 0.123 µM; on Cathepsin D (Cat D) (setting [5]) it was over 400 µM.
The matching figures for `C#CCOc1ccc(C(=O)Nc2cc(F)c(F)c([C@]3(CF)C[C@@H](C(F)(F)F)OC(N)=N3)c2)nc1` [Example 159, N-(3-((4S,6S)-2-amino-4-(fluoromethyl)-6-(trifluoromethyl)-5,6-dihydro-4H-1,3-oxazin-4-yl)-4,5-difluorophenyl)-5-(prop-2-yn-1-yloxy)picolinamide]: 0.013 µM, 0.093 µM and over 400 µM.
The like results for `NC1=N[C@](CF)(c2cc(Nc3nccc4cc(Cl)cnc34)cc(F)c2F)C[C@@H](C(F)(F)F)O1` [Example 161, (4S,6S)-4-(5-((3-chloro-1,7-naphthyridin-8-yl)amino)-2,3-difluorophenyl)-4-(fluoromethyl)-6-(trifluoromethyl)-5,6-dihydro-4H-1,3-oxazin-2-amine] were, in that order, 0.023 µM, 0.535 µM and over 400 µM.
As for `COc1cc(C#N)cnc1C(=O)Nc1cc(F)c(F)c([C@]2(C)C[C@@H](C(F)(F)F)OC(N)=N2)c1` [Example 168, N-(3-((4S,6S)-2-amino-4-methyl-6-(trifluoromethyl)-5,6-dihydro-4H-1,3-oxazin-4-yl)-4,5-difluorophenyl)-5-cyano-3-methoxypicolinamide], the IC50 in experiment [1] (setting [3]) was 0.051 µM; in experiment [2] (HEK293, read-out: HEK cell assay IC50), 0.0061 µM; on Cathepsin D (Cat D) (setting [5]), over 400 µM.
In the case of `Cc1cc(Cl)cnc1C(=O)Nc1cc(F)c(F)c([C@]2(C)C[C@@H](C(F)(F)F)OC(N)=N2)c1` [Example 170, N-(3-((4S,6S)-2-amino-4-methyl-6-(trifluoromethyl)-5,6-dihydro-4H-1,3-oxazin-4-yl)-4,5-difluorophenyl)-5-chloro-3-methylpicolinamide], the IC50 in experiment [1] (setting [3]) is 0.0095 µM; in experiment [2] (setting [4]) it was 0.014 µM; on Cathepsin D (Cat D) (setting [5]), 733 µM.
As to `C[C@@]1(c2cc(NC(=O)c3ncc(Cl)cc3Cl)cc(F)c2F)C[C@@H](C(F)(F)F)OC(N)=N1` [Example 172, N-(3-((4S,6S)-2-amino-4-methyl-6-(trifluoromethyl)-5,6-dihydro-4H-1,3-oxazin-4-yl)-4,5-difluorophenyl)-3,5-dichloropicolinamide], the values for the concentration for half-maximal inhibition (IC50) (in experiment [1] (setting [3]); in experiment [2] (setting [4]); on Cathepsin D (Cat D) (setting [5])) were 0.019 µM, 0.019 µM and 394 µM, respectively.
Consider `COc1cnc(C(=O)Nc2cc(F)c(F)c([C@]3(C)C[C@@H](C(F)(F)F)OC(N)=N3)c2)c(C)n1` [Example 173, N-(3-((4S,6S)-2-amino-4-methyl-6-(trifluoromethyl)-5,6-dihydro-4H-1,3-oxazin-4-yl)-4,5-difluorophenyl)-5-methoxy-3-methylpyrazine-2-carboxamide], for which the values for the IC50 (in experiment [1] (average); in experiment [2] (setting [6]); on Cathepsin D (Cat D) (average)) were 0.118 µM, 0.085 µM and over 400 µM, respectively.
Turning to `C[C@@]1(c2cc(NC(=O)c3ccc(Br)cn3)cc(F)c2F)C[C@@H](C(F)(F)F)OC(N)=N1` [Example 175, N-(3-((4S,6S)-2-amino-4-methyl-6-(trifluoromethyl)-5,6-dihydro-4H-1,3-oxazin-4-yl)-4,5-difluorophenyl)-5-bromopicolinamide], the IC50 in experiment [1] (average) came out at 0.022 µM; in experiment [2] (setting [6]), 0.0066 µM; at Cathepsin D (Cat D) (average), 424 µM.
Turning to `C[C@@]1(c2cc(Nc3nccc4cc(Cl)cnc34)cc(F)c2F)C[C@@H](C(F)(F)F)OC(N)=N1` [Example 176, (4S,6S)-4-(5-((3-chloro-1,7-naphthyridin-8-yl)amino)-2,3-difluorophenyl)-4-methyl-6-(trifluoromethyl)-5,6-dihydro-4H-1,3-oxazin-2-amine], the IC50 in experiment [1] (setting [3]) turned out to be 0.021 µM; in experiment [2] (setting [4]) it was 0.102 µM; at Cathepsin D (Cat D) (setting [5]), 104 µM.
Take `C[C@@]1(c2cc(Nc3ncc(F)c4cc(C#N)cnc34)cc(F)c2F)C[C@@H](C(F)(F)F)OC(N)=N1` [Example 177, 8-((3-((4S,6S)-2-amino-4-methyl-6-(trifluoromethyl)-5,6-dihydro-4H-1,3-oxazin-4-yl)-4,5-difluorophenyl)amino)-5-fluoro-1,7-naphthyridine-3-carbonitrile]: the IC50 was 0.03 µM in experiment [1] (setting [3]), 0.275 µM in experiment [2] (setting [4]) and over 4.94 µM on Cathepsin D (Cat D) (setting [5]).
In the case of `C[C@@]1(c2cc(Nc3nccc4cc(C#N)cnc34)cc(F)c2F)C[C@@H](C(F)(F)F)OC(N)=N1` [Example 180, 8-((3-((4S,6S)-2-amino-4-methyl-6-(trifluoromethyl)-5,6-dihydro-4H-1,3-oxazin-4-yl)-4,5-difluorophenyl)amino)-1,7-naphthyridine-3-carbonitrile], the values for the 50% inhibitory concentration (IC50) (in experiment [1] (setting [3]); in experiment [2] (setting [4]); on Cathepsin D (Cat D) (setting [5])) were 0.014 µM, 0.036 µM and over 400 µM, respectively.
As for `NC1=N[C@](CF)(c2cc(C(=O)NC3CC3)ccc2F)C[C@@H](C(F)(F)F)O1` [Example 182, 3-((4S,6S)-2-amino-4-(fluoromethyl)-6-(trifluoromethyl)-5,6-dihydro-4H-1,3-oxazin-4-yl)-N-cyclopropyl-4-fluorobenzamide], the figures for the IC50 (in experiment [1] (setting [3]); in experiment [2] (setting [4]); at Cathepsin D (Cat D) (setting [5])) were 11.4 µM, over 15.6 µM and 3490 µM, respectively.
`C[C@@]1(c2cc(NC(=O)c3cnc(OCC(F)(F)F)cn3)cc(F)c2F)C[C@@H](C(F)(F)F)OC(N)=N1` [Example 186, N-(3-((4S,6S)-2-amino-4-methyl-6-(trifluoromethyl)-5,6-dihydro-4H-1,3-oxazin-4-yl)-4,5-difluorophenyl)-5-(2,2,2-trifluoroethoxy)pyrazine-2-carboxamide]: the IC50 in experiment [1] (average) was 0.021 µM; in experiment [2] (setting [6]), 0.015 µM; at Cathepsin D (Cat D) (average) it was over 400 µM.
The like results for `C[C@@]1(c2cc(NC(=O)c3ncc(C(F)(F)F)cc3Cl)cc(F)c2F)C[C@@H](C(F)(F)F)OC(N)=N1` [Example 187, N-(3-((4S,6S)-2-amino-4-methyl-6-(trifluoromethyl)-5,6-dihydro-4H-1,3-oxazin-4-yl)-4,5-difluorophenyl)-3-chloro-5-(trifluoromethyl)picolinamide] were, in that order, 0.075 µM, 0.015 µM and over 400 µM.
Consider `CC#CCOc1ccc(C(=O)Nc2cc(F)c(F)c([C@]3(C)C[C@@H](C(F)(F)F)OC(N)=N3)c2)nc1` [Example 189, N-(3-((4S,6S)-2-amino-4-methyl-6-(trifluoromethyl)-5,6-dihydro-4H-1,3-oxazin-4-yl)-4,5-difluorophenyl)-5-(but-2-yn-1-yloxy)picolinamide], for which the IC50 in experiment [1] (average) worked out at 0.003 µM; in experiment [2] (setting [6]), 0.003 µM; on Cathepsin D (Cat D) (average), 784 µM.
`C#CCOc1cnc(C(=O)Nc2cc(F)c(F)c([C@]3(C)C[C@@H](C(F)(F)F)OC(N)=N3)c2)cn1` [Example 190, N-(3-((4S,6S)-2-amino-4-methyl-6-(trifluoromethyl)-5,6-dihydro-4H-1,3-oxazin-4-yl)-4,5-difluorophenyl)-5-(prop-2-yn-1-yloxy)pyrazine-2-carboxamide]: the IC50 is over 40 µM in experiment [1] (setting [3]); 0.002 µM in experiment [1] (average); 0.002 µM in experiment [2] (setting [6]); over 15.6 µM in experiment [2] (setting [4]); over 400 µM on Cathepsin D (Cat D) (setting [5]); 505 µM on Cathepsin D (Cat D) (average).

Values taken from patent US9296734B2 (AMGEN INC., priority 2013, dated 2016).
